Measurements from patent US4929620A, “5-pyrimidinyl-3,5-dihydroxy-6-heptenoic acid compounds useful as inhibitors of cholesterol biosynthesis” (Warner-Lambert Company, priority 1989, dated 1990).

tested on: sterol synthesis; assay: CSI screen: incorporation of 14C-acetate into nonsaponifiable lipid by rat liver homogenate (inhibition of cholesterol biosynthesis); type: biochemical; details: 50% inhibition of sterol synthesis over a one-hour period, livers of rats fed 5% cholestyramine chow for four days
Method: The ability of compounds of the present invention to inhibit the biosynthesis of cholesterol was measured by a method (designated CSI screen) which utilizes the procedure described by R. E. Dugan et al, Archiv. Biochem. Biophys., (1972), 152, 21-27. In this method, the level of HMG-CoA enzyme activity in standard laboratory rats is increased by feeding the rats a chow diet containing 5% cholestyramine for four days, after which the rats are sacrificed.
The rat livers are homogenized, and the incorporation of 14C-acetate into nonsaponifiable lipid by the rat liver homogenate is measured. The micromolar concentration of compound required for 50% inhibition of sterol synthesis over a one-hour period is measured, and expressed as an IC50 value.
The activities of several representative examples of compounds in accordance with the present invention appear in Table 1.

Compound | IC50
Cc1nc(C)c(/C=C/[C@@H]2C[C@@H](O)CC(=O)O2)c(-c2ccc(F)cc2)n1 (relative stereo) [[4α, 6β(E)]-6-[2-[4-(4-Fluorophenyl)-2,6-dimethyl-5-pyrimidinyl]ethenyl]tetrahydro-4-hydroxy-2H-pyran-2-one] | 130 nM
Cc1nc(-c2ccccc2)nc(-c2ccc(F)cc2)c1/C=C/[C@@H]1C[C@@H](O)CC(=O)O1 (relative stereo) [[4α, 6β(E)]-6-[2-[4-(4-Fluorophenyl)-6-methyl-2-phenyl-5-pyrimidinyl]ethenyl]tetrahydro-4-hydroxy-2H-pyran-2-one] | 150 nM
Cc1cc(C)cc(-c2nc(-c3ccccc3)nc(C)c2/C=C/[C@@H]2C[C@@H](O)CC(=O)O2)c1 (relative stereo) [[4α, 6β(E)]-6-[2-[4-(3,5-Dimethylphenyl)-6-methyl-2-phenyl-5-pyrimidinyl]ethenyl]-tetrahydro-4-hydroxy-2H-pyran-2-one] | 220 nM
